Reference: patent publication US5157051A, “Composition and use of 3-thiocyano-2-halo-2-propenenitriles as antimicrobial agents” (The Dow Chemical Company, priority 1992, dated 1992)
Read-outs that look alike come from different tables or passages of the source.

How the values were obtained:
Klebsiella pneumoniae = assay: MIC, Klebsiella pneumoniae (Kp), nutrient agar; format: cell-based, Klebsiella pneumoniae ATCC 8308; conditions: 30° C., 48 hours, read-out: Minimum Inhibitory Concentration, Kp
Protocol: (§1) The minimum inhibitory concentration (MIC) for the compounds is determined for 9 bacteria, using nutrient agar, and 7 yeast and fungi, using malt yeast agar. A one percent solution of the test compound is prepared in a mixture of acetone and water. Nutrient agar is prepared at pH 6.8, representing a neutral medium, and at pH 8.2, representing an alkaline medium. The nutrient agars are prepared by adding 23 g of nutrient agar to one-liter of deionized water. In addition, the alkaline medium is prepared by adjusting a 0.04M solution of N-[tris-(hydroxymethyl)methyl]-glycine buffered deionized water with concentrated sodium hydroxide to a pH of […]. Malt yeast agar is prepared by adding 3 g yeast extract and 45 g malt agar per liter of dionized water. The specific agar is dispensed in 30 ml aliquots into 25×200 mm test tubes, capped and autoclaved for 15 minutes at 115° C. The test tubes containing the agar are cooled in a water bath until the temperature of the agar is 48 ° C. […]
(§2) The inoculated petri plates are incubated at 30° C. for 48 hours and then read to determine if the test compound which is incorporated into the agar prevented growth of the respective bacteria. […]

Penicillium chrysogenum = assay: MIC, Penicillium chrysogenum (Pc), malt yeast agar; format: cell-based, Penicillium chrysogenum ATCC 9480; conditions: 30° C., 72 hours (fungi), read-out: Minimum Inhibitory Concentration, Pc
Protocol: as §1
(§3) The inoculation with the yeast and fungi is accomplished as follows. […] The petri plates are incubated at 30° C. and read after 48 hours for yeast and 72 hours for fungi. […]

Bacillus subtilis = assay: MIC, Bacillus subtilis (Bs), nutrient agar; format: cell-based, Bacillus subtilis ATCC 8473; conditions: 30° C., 48 hours, read-out: Minimum Inhibitory Concentration, Bs
Protocol: as §1, §2

Escherichia coli = assay: MIC, Escherichia coli (Ec), nutrient agar; format: cell-based, Escherichia coli ATCC 11229; conditions: 30° C., 48 hours, read-out: Minimum Inhibitory Concentration, Ec
Protocol: as §1, §2

[1] = tested on: Pseudomonas aeruginosa (PRD-10); assay: MIC, Pseudomonas aeruginosa (PRD-10), nutrient agar; format: cell-based, Pseudomonas aeruginosa ATCC 15442; conditions: 30° C., 48 hours, read-out: Minimum Inhibitory Concentration, PRD
Protocol: as §1, §2

Saccharomyces cerevisiae = assay: MIC, Saccharomyces cerevisiae (Sc), malt yeast agar; format: cell-based, Saccharomyces cerevisiae ATCC 4105; conditions: 30° C., 48 hours (yeast), read-out: Minimum Inhibitory Concentration, Sc
Protocol: as §1, §3

Candida albicans = assay: MIC, Candida albicans (Ca), malt yeast agar; format: cell-based, Candida albicans ATCC 10231; conditions: 30° C., 48 hours (yeast), read-out: Minimum Inhibitory Concentration, Ca
Protocol: as §1, §3

Aspergillus niger = assay: MIC, Aspergillus niger (An), malt yeast agar; format: cell-based, Aspergillus niger ATCC 16404; conditions: 30° C., 72 hours (fungi), read-out: Minimum Inhibitory Concentration, An
Protocol: as §1, §3

Aureobasidium pullulan = assay: MIC, Aureobasidium pullulan (Ap), malt yeast agar; format: cell-based, Aureobasidium pullulan ATCC 16622; conditions: 30° C., read after 48 hours for yeast and 72 hours for fungi, read-out: Minimum Inhibitory Concentration, Ap
Protocol: as §1, §3

Fusarium oxysporum = assay: MIC, Fusarium oxysporum (Fo), malt yeast agar; format: cell-based, Fusarium oxysporum ATCC 48112; conditions: 30° C., 72 hours (fungi), read-out: Minimum Inhibitory Concentration, Fo
Protocol: as §1, §3

Enterobacter aerogenes = assay: MIC, Enterobacter aerogenes (Ea), nutrient agar; format: cell-based, Enterobacter aerogenes ATCC 13048; conditions: Klebsiella aerogenes, 30° C., 48 hours, read-out: Minimum Inhibitory Concentration, Ea
Protocol: as §1, §2

Pseudomonas aeruginosa = assay: MIC, Pseudomonas aeruginosa (Pa), nutrient agar; format: cell-based, Pseudomonas aeruginosa ATCC 10145; conditions: 30° C., 48 hours, read-out: Minimum Inhibitory Concentration, Pa
Protocol: as §1, §2

Salmonella choleraesuis = assay: MIC, Salmonella choleraesuis (Sc), nutrient agar; format: cell-based, Salmonella choleraesuis ATCC 10708; conditions: Salmonella enterica, 30° C., 48 hours, read-out: Minimum Inhibitory Concentration, Sc
Protocol: as §1, §2

Trichoderma viride = assay: MIC, Trichoderma viride (Tv), malt yeast agar; format: cell-based, Trichoderma viride ATCC 8678; conditions: 30° C., 72 hours (fungi), read-out: Minimum Inhibitory Concentration, Tv
Protocol: as §1, §3

Staphylococcus aureus = assay: MIC, Staphylococcus aureus (Sa), nutrient agar; format: cell-based, Staphylococcus aureus ATCC 6538; conditions: 30° C., 48 hours, read-out: Minimum Inhibitory Concentration, Sa
Protocol: as §1, §2

Proteus vulgaris = assay: MIC, Proteus vulgaris (Pv), nutrient agar; format: cell-based, Proteus vulgaris ATCC 881; conditions: 30° C., 48 hours, read-out: Minimum Inhibitory Concentration, Pv
Protocol: as §1, §2

Measured: MIC

N#CSC=C(Cl)C#N [3-Thiocyano-2-chloro-2-propenenitrile, 3-Thiocyano-2-Chloro-2-Propenenitrile]
2.5 µg/mL: Penicillium chrysogenum | Saccharomyces cerevisiae | Candida albicans | Aspergillus niger | Aureobasidium pullulan | Fusarium oxysporum
> 500 µg/mL: Escherichia coli; pH 8.2, nutrient agar | [1]; pH 8.2, nutrient agar | Enterobacter aerogenes; pH 8.2, nutrient agar | Salmonella choleraesuis; pH 8.2, nutrient agar | Proteus vulgaris; pH 8.2, nutrient agar
500 µg/mL: Klebsiella pneumoniae; pH 8.2, nutrient agar | Bacillus subtilis; pH 8.2, nutrient agar | Pseudomonas aeruginosa; pH 8.2, nutrient agar | Staphylococcus aureus; pH 8.2, nutrient agar
25 µg/mL: Bacillus subtilis; pH 6.8, nutrient agar
250 µg/mL: [1]; pH 6.8, nutrient agar | Enterobacter aerogenes; pH 6.8, nutrient agar | Pseudomonas aeruginosa; pH 6.8, nutrient agar
50 µg/mL: Staphylococcus aureus; pH 6.8, nutrient agar | Proteus vulgaris; pH 6.8, nutrient agar
100 µg/mL: Klebsiella pneumoniae; pH 6.8, nutrient agar | Escherichia coli; pH 6.8, nutrient agar | Salmonella choleraesuis; pH 6.8, nutrient agar
5 µg/mL: Trichoderma viride
